{"source": "patent US9920020B2", "about": "“Using squaraine dyes as near infrared fluorescent sensors for protein detection” (The University of Akron, priority 2011, dated 2018)", "key": {"chymotrypsin": {"system": "chymotrypsin", "test": "Fluorescence response to chymotrypsin in PBS", "type": "binding", "description": "(§1) The fluorescence enhancement upon binding BSA reached over 140-fold, which was quite large in comparison with those being reported. The detection limit was 1 μg/mL of BSA (signal-to-noise ratio was 3). The fluorescence response of DNSA-SQ to other proteins in PBS was also investigated. […] The observed specific binding to site I can be attributed to hydrophobic pockets of BSA in its structure."}, "BSA [1]": {"biological_target": "T1, BSA (Bos taurus, UniProt P02769)", "T1 construct": "purchased Acros Chemical", "T1 sequence (P02769 25-607)": "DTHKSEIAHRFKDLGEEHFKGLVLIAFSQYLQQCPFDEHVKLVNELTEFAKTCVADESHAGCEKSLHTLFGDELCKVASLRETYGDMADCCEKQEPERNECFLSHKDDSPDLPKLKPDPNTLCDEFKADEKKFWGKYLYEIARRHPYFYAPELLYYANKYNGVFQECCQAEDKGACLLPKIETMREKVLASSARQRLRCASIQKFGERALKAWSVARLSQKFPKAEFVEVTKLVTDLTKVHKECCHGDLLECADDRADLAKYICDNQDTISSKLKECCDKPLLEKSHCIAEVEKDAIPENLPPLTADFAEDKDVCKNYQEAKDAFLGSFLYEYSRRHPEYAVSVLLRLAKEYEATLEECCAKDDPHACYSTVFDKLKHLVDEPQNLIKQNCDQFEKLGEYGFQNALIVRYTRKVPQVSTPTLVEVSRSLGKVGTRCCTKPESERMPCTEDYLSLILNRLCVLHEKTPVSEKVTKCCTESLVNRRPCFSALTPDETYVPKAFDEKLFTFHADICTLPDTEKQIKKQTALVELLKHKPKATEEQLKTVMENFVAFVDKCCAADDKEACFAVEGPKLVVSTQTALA", "test": "ESI travelling wave ion mobility mass spectrometry (TWIMS) of BSA-guest complexes", "set-up": "species or system bovine", "conditions": "15+ charge state", "source_text": "Ion mobility mass spectrometry, when coupled with ESI, can produce an array of multiply charged gas-phase ions from protein molecules in solution which is related to the solution-phase folded and unfolded conformation of the protein. The structural measurement, namely, collision cross-section, can be calculated from the drift time of each ion. Herein we use travelling wave ion mobility mass spectrometry (TWIMS) to detect the change of the protein conformation after different site selective binding guests were added in BSA buffer solution. TWIMS was performed under the same conditions to ensure minimal error for compassion. […] As shown in FIG. 19(c), the ions of DP were generated through the tandem MS of intact complex ions at 15+. Taking 15+ charge state for example, the mobility peak drift time tD=6.41, 6.80, 6.67 and 6.54 ms for BSA, BSA+DP, BSA+DNSA-SQ and BSA+DNSA, respectively. The corresponding experimental collision cross-sections (CCS) are 4298, 4364, 4342 and 4320 Å2 using standard curve. […] This finding is consistent with the fluorescence change discussed above, particularly for the fluorescence enhancement by adding DP to BSA/DNSA-SQ."}, "trypsin": {"system": "trypsin", "test": "Fluorescence response to trypsin in PBS", "type": "binding", "description": "as §1"}, "BSA [2]": {"biological_target": "T1, BSA", "test": "Fluorescence response of DNSA-SQ to BSA in aqueous solution without aggregation agent", "type": "binding, bovine", "description": "(§2) With the 1:1 binding model from fitting of absorption titration spectra, the dissociation constant for BSA was estimated to be 9.35×10^−6 M upon titration with BSA in aqueous solution. In sharp contrast, there is no response to BSA in aqueous solution for 1b, as its binding to BSA requires addition of surfactant SDS or graphene.\nas §1"}, "BSA [3]": {"biological_target": "T1, BSA", "test": "Absorption titration with BSA, 1:1 binding model (dissociation constant)", "set-up": "species or system bovine", "conditions": "absorption titration in aqueous solution", "source_text": "as §2"}, "lipase": {"system": "lipase", "test": "Fluorescence response to lipase in PBS", "type": "binding", "description": "as §1"}, "[4]": {"test": "Fluorescence quantum yield of the dye in aqueous solution", "type": "physicochemical", "conditions": "no protein", "description": "NMR spectra were collected on a Varian 300 Gemini spectrometer. Mass spectrometric data were obtained on a HP1100LC/MSD mass spectrometry. HRMS data were performed on a TOF MS system. UV-Vis spectra were acquired on a Hewlett-Packard 8453 diode-array spectrometer. Fluorescence spectra were obtained on a HORIBA Jobin Yvon NanoLog spectrometer. The quantum yield of fluorescence of the sample was measured using bis(3-ethylbenzothiazol-2-ylidene)squaraine in ethanol (Φ=0.21) as a standard and calculated using equation (1): […]\nWhere Φunk is i the fluorescence quantum yield of the sample, Φstd is the fluorescence quantum yield of the standard, Iunk and Istd are the integrated emission intensities of the sample and the standard, respectively, Aunk and Astd are the absorbance of the sample and the standard at the excitation wavelength, respectively, and nunk and nstd are the refractive indexes of the corresponding solution.\nIn the presence of the anionic surfactant (sodium dodecyl sulfate, SDS) (1.7 mM or 0.05% wt), the fluorescence signals are further decreased by a factor of about 3. […] The emission signals at ˜684 nm is assigned to the monomeric 1b, as the fluorescence of squaraine dye typically has a small Stokes' shift (about 10-30 nm). […] Similar fluorescence enhancement is also observed from 1a and 1c after the addition of BSA. […]"}, "zebrafish embryos/larvae": {"system": "zebrafish embryos/larvae", "test": "Toxicity to zebrafish embryos/larvae", "type": "in vivo", "source_text": "(§3) The most attractive application for protein sensing is labeling and imaging in living organisms. Zebrafish have recently become an important model organism for the study of vertebrate imaging. This is because the embryos of zebrafish are transparent, allowing for clear observation of their organs without the need for dissection. The optical transparancy of zebrafish, therefore, provides a convenient organism for detection of ions by fluorescence microscopy. No published reports are found on the use of zebrafish for BSA fluorescence microscopy. Herein, DNSA-SQ was examined in developing zebrafish for its applicability. DNSA-SQ labeling was examined in developing zebrafish by adding DNSA-SQ to fish tank water (treatment lasted for one hour at room temperature). There was no labeling in control (i.e. without BSA supplement) embryos at 2.5 hours post fertilization (hpf, FIG. 20B), 36 hpf and 73 hpf (data not shown). […] At 73 hpf, the labeling was detected in the yolk and yolk extension (FIG. 20D), eye (FIG. 20E) and pigmented cells in the body trunk and tail regions (FIGS. 20G and H). […] The DNSA-SQ labeling pattern show good biocompatibility, excellent turn-on fluorescence.\nTherefore DNSA-SQ was proving not toxic to the subjects. […]"}, "fibrinogen": {"biological_target": "T2, fibrinogen (Homo sapiens, UniProt P02671+P02675+P02679)", "T2 sequence (P02671 20-629 limits assumed)": "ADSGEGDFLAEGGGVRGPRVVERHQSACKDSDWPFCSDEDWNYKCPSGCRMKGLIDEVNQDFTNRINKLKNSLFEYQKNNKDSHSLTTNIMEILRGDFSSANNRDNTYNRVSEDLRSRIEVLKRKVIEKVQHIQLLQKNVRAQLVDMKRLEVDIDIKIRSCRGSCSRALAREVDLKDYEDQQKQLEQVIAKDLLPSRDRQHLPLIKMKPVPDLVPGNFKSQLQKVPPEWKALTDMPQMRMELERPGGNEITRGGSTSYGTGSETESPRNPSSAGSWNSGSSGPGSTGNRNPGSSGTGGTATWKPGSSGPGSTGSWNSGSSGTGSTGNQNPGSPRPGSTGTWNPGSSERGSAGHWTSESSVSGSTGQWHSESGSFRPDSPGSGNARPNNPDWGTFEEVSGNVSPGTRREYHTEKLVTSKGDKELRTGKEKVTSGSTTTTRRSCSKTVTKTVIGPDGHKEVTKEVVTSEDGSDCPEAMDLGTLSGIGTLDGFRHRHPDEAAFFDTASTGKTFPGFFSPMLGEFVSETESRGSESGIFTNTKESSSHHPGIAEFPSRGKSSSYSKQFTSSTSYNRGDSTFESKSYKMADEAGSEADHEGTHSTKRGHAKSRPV", "T2 sequence (P02675 31-491)": "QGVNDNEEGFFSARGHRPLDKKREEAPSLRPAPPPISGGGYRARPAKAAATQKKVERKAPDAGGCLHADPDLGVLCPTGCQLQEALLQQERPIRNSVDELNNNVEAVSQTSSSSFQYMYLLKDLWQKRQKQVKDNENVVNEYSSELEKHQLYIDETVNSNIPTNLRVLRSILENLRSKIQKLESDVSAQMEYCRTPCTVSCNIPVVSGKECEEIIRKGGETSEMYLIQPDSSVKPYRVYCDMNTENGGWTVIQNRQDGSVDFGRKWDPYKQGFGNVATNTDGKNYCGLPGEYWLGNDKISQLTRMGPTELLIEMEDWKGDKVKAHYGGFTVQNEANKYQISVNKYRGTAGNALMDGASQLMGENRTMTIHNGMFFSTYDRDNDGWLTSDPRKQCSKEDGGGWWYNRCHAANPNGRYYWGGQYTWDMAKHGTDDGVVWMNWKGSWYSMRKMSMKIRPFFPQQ", "T2 sequence (P02679 27-433 limits assumed)": "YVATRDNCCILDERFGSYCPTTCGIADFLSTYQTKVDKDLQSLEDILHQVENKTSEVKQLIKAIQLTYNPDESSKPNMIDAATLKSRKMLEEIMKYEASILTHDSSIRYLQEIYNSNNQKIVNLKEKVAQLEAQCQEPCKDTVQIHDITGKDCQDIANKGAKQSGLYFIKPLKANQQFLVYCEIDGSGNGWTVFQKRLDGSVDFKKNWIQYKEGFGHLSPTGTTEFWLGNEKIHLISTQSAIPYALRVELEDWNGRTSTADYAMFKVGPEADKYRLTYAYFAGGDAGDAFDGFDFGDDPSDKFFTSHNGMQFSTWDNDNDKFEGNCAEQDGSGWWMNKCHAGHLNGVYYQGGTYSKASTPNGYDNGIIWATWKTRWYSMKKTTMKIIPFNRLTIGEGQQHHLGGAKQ", "test": "Fluorescence response to fibrinogen in PBS", "type": "binding", "description": "as §1"}, "lysozyme": {"biological_target": "T3, lysozyme (Gallus gallus, UniProt P00698)", "T3 construct": "purchased SIGMA", "T3 sequence (P00698 19-147)": "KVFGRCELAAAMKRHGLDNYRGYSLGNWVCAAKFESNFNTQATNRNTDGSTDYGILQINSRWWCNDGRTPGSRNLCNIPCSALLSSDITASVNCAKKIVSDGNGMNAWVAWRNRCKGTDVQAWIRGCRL", "test": "Fluorescence response to lysozyme in PBS", "type": "binding", "description": "as §1"}, "BSA site I and site II": {"biological_target": "T4, BSA site I and site II (Bos taurus, UniProt P02769)", "T4 construct": "purchased Acros Chemical", "T4 sequence (P02769 25-607)": "as the sequence (P02769 25-607) above", "test": "Site-selective ligand displacement from BSA/DNSA-SQ complex", "type": "binding, bovine", "source_text": "The site-selective binding of BSA/DNSA-SQ was probed by employing a site selective binding ligand, which would result in decrease in fluorescence intensity when the squaraine dyes were displaced from a specific BSA binding site. […] The observed fluorescence increasing thus implies that the BSA conformation change as DP entered the site II, which stimulated interaction of BSA/DNSA-SQ at site I. It was noted that a squaraine dye can selectively bind BSA at site I (˜40%) and site II (˜60%) on the assumption of no dependency between Site I and II of BSA. Circular dichroism (CD) was also used to probe the proposed binding mechanism. Similar CD spectra usually represent a similar binding mode between the sensor and protein. […] Under the same conditions, the effect of DNSA-SQ on the CD spectrum of BSA was similar to that of DNSA. The result further supports that DNSA-SQ was binding to site I of BSA.\nThe response of a fluorescence probe at a specific site (such as site I), therefore, could also shed some light on the binding of the other site (e.g. site II). Study of this synergetic interaction between two binding sites could lead to improved understanding on the protein-dye interaction."}, "[5]": {"system": "BSA injected into zebrafish embryos", "test": "DNSA-SQ labeling of live developing zebrafish embryos", "type": "in vivo", "source_text": "as §3"}, "[6]": {"biological_target": "T5, formaldehyde dehydrogenase (Pseudomonas putida, UniProt P46154)", "T5 construct": "purchased SIGMA", "T5 sequence (P46154 whole entry)": "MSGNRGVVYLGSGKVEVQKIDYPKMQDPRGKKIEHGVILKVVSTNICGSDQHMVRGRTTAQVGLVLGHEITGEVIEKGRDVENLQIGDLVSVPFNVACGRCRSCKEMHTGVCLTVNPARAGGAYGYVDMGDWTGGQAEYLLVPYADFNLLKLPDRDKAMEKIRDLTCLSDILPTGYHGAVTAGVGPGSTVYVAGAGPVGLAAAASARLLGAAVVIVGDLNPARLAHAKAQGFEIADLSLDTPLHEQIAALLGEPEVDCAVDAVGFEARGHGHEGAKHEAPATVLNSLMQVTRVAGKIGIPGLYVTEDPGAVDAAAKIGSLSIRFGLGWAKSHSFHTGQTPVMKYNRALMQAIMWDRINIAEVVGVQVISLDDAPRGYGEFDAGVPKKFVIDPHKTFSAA", "test": "Fluorescence response to formaldehyde dehydrogenase in PBS", "type": "binding", "description": "as §1"}, "[7]": {"conditions": "dye in fish tank water, one hour, room temperature"}}}
{"smiles": "CCN1C(=CC2=C([N-]S(=O)(=O)c3cccc4c(N(C)C)cccc34)C(=Cc3sc4ccccc4[n+]3CC)C2=O)Sc2ccccc21", "note": "[DNSA-SQ]", "values": [{"measurement": "fluorescence change with chymotrypsin", "setting": "chymotrypsin", "result": "no obvious fluorescence change"}, {"measurement": "mobility peak drift time tD of BSA-guest complex", "setting": "BSA [1]", "result": 6.67, "unit": "ms"}, {"measurement": "experimental collision cross-section (CCS) of BSA-guest complex", "setting": "BSA [1]; standard curve", "result": 4342, "unit": "Å2"}, {"measurement": "fluorescence change with trypsin", "setting": "trypsin", "result": "no obvious fluorescence change"}, {"measurement": "fluorescence enhancement upon binding BSA", "setting": "BSA [2]; 674 nm, no aggregation agent", "result": "over 140 fold"}, {"measurement": "detection limit of BSA", "setting": "BSA [2]; signal-to-noise ratio 3", "result": 1, "unit": "µg/mL"}, {"measurement": "Kd", "setting": "BSA [3]", "result": 9.35, "unit": "µM"}, {"measurement": "fluorescence change with lipase", "setting": "lipase", "result": "no obvious fluorescence change"}, {"measurement": "fluorescence quantum yield φfl", "setting": "[4]", "result": "1.0×10^−4"}, {"measurement": "size and shape of treated embryos/larvae compared to untreated", "setting": "zebrafish embryos/larvae", "result": "appeared normal in size and shape"}, {"measurement": "toxicity to treated embryos/larvae", "setting": "zebrafish embryos/larvae", "result": "not toxic"}, {"measurement": "fluorescence change with fibrinogen", "setting": "fibrinogen", "result": "no obvious fluorescence change"}, {"measurement": "fluorescence change with lysozyme", "setting": "lysozyme", "result": "no obvious fluorescence change"}, {"measurement": "fluorescence of BSA/DNSA-SQ complex on addition of site I ligand DNSA", "setting": "BSA site I and site II; displacement by DNSA", "result": "did not result in fluorescence intensity change"}, {"measurement": "fluorescence of BSA/DNSA-SQ complex on addition of site II ligand DP", "setting": "BSA site I and site II; displacement by DP", "result": "fluorescence intensity increasing"}, {"measurement": "BSA binding site selectivity", "setting": "BSA site I and site II; displacement by site-selective ligands and mass spectra data", "result": "enters selectively at site I"}, {"measurement": "labeling of control embryos without BSA supplement", "setting": "[5]; 2.5, 36 and 73 hpf", "result": "no labeling"}, {"measurement": "labeling of BSA-injected embryos at 2.5 hpf", "setting": "[5]; [7]", "result": "labeling of all dividing cells"}, {"measurement": "labeling of BSA-injected embryos at 73 hpf", "setting": "[5]; [7]", "result": "confined BSA labeling"}, {"measurement": "cell membrane penetration", "setting": "[5]; living zebrafish embryos", "result": "can easily penetrate through cell membranes"}, {"measurement": "fluorescence change with formaldehyde dehydrogenase", "setting": "[6]", "result": "no obvious fluorescence change"}]}
